Here are results for two molecules from paper PMC10598577 (JACS Au, 2023).

Structures are written as SMILES. “Also recorded” adds a separate entry of the source.

Assay [1] addresses T1, wild type MopR (Acinetobacter guillouiae, UniProt Q43965).
T1 sequence (Q43965 1-229): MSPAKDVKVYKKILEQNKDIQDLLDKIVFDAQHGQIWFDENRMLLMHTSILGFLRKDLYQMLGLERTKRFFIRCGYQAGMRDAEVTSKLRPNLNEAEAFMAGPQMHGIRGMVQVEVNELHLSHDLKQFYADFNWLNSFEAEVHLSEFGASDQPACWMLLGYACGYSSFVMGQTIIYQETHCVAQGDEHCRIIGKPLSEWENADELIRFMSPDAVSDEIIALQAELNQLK
Conditions: wild type MopR sensor domain; previous ITC studies; cited from earlier work.

A further assay has as its target MopR W134A. The conditions noted are these: cited from earlier work.
A further assay has as its target MopR M100Q_L119N (Acinetobacter guillouiae, UniProt Q43965, L119N/M100Q). In words: biochemical.
A further assay has as its target MopR M100V_L119V (Acinetobacter guillouiae, UniProt Q43965, L119V/M100V). In words: biochemical.
Assay [2] has as its system MopR second barrier residues (F99, F132) mutated to leucine. The conditions noted are these: F99, F132 mutated to nonaromatic leucine, ligand phenol.
A further assay deals with MopR M100Q_V116N (Acinetobacter guillouiae, UniProt Q43965, M100Q/V116N). In words: biochemical.
The next assay deals with MopR H106A. Conditions: cited from earlier work.
Assay [3] has as its target T1, wild type MopR. In words: biochemical.
The next assay relates to MopR M100K_L119D. The conditions noted are these: salt bridge mutant M100K_L119D, ligand phenol.
In a further assay the target is MopR M100K_V116D (Acinetobacter guillouiae, UniProt Q43965, M100K/V116D). The conditions noted are these: salt bridge mutant M100K_V116D, ligand phenol.

`c1ccccc1` [benzene]: the “ligand selection profile of MopR (binding, in words)” value on wild type MopR [1] was “significantly decreased affinity; also recorded: little or negligible binding”.
The term Kd denotes the concentration at which binding is half-saturated. In the case of `Oc1ccccc1` [phenol], the Kd at MopR W134A was 2870 ± 10 nM; at MopR M100Q_L119N it was 2700 ± 500 nM; on MopR M100V_L119V, 450 ± 60 nM; on MopR M100Q_V116N it was 4350 ± 70 nM; on MopR H106A it was 7860 ± 10 nM; at wild type MopR [3] it was 460 ± 60 nM. Moreover, the “binding affinity (ITC)” value in [2] was “significantly decrease the binding affinity”. Further, the “binding (ITC)” value in the assay with MopR M100K_L119D and at MopR M100K_V116D was “no detectable binding” in each case.
